Here are results for 27 molecules from patent US8946215B2, “Hydroxy-substituted imidazo[1,2-a]pyridinecarboxamides and their use” (Bayer Pharma Aktiengesellschaft, priority 2012, dated 2015).

Structures are written as SMILES. Counter-ions that a name gives are not always drawn.

In the test the target is T1, recombinant guanylate cyclase reporter cell line (Rattus norvegicus, UniProt P19686+P20595).
T1 construct: expressed in transfected cells
T1 sequence (P20595 1-619): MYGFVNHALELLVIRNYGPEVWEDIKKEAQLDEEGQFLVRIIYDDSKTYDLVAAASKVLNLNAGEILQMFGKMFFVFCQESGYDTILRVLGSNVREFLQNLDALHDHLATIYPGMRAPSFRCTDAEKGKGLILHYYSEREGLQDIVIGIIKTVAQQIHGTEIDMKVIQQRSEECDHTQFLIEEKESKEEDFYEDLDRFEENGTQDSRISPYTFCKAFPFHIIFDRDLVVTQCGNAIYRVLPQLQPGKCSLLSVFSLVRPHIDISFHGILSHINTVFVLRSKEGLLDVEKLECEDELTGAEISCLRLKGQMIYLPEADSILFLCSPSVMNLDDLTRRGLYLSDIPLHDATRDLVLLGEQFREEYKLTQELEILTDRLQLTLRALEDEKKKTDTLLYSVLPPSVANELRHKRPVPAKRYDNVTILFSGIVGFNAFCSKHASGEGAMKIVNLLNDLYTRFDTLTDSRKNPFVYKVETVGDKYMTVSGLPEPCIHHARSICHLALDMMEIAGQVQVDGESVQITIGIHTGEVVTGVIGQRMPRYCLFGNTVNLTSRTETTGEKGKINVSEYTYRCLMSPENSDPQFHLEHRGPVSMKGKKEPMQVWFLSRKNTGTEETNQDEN
T1 sequence (P19686 1-690): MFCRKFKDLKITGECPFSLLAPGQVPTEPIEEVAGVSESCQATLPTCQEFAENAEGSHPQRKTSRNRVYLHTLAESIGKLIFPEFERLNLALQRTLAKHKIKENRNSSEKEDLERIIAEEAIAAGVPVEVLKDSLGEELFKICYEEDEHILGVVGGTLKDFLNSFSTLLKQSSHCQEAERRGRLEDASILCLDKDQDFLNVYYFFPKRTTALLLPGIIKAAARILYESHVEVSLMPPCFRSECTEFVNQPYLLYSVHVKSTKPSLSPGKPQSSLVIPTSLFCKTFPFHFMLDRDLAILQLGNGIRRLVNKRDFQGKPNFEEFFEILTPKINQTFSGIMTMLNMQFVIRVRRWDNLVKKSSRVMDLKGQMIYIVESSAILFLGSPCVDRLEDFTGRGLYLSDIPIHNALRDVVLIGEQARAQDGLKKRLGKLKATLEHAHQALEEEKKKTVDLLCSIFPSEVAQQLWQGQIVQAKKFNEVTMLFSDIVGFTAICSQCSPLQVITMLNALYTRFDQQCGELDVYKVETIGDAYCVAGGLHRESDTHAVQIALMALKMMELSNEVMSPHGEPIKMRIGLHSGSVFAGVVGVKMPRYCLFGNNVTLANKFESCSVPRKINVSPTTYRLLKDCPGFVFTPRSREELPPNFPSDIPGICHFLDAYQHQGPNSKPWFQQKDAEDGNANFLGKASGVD
Put plainly: Action on recombinant guanylate cyclase reporter cell line. The settings on record: in some cases mean values obtained from individual determinations. The test is classed as cell-based. The procedure, abridged: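 Cell-based reporter assay with recombinant guanylate cyclase expressed in a reporter cell line, per a published method. Activity reported as minimal effective concentration (MEC), in some cases as the mean of individual determinations.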
As to `Cc1nc2c(OCc3c(F)cccc3F)cccn2c1C(=O)N[C@@H](CO)CC(C)C` [Example 39, 8-[(2,6-Difluorobenzyl)oxy]-N-[(2R)-1-hydroxy-4-methylpentan-2-yl]-2-methylimidazo[1,2-a]-pyridine-3-carboxamide], the “MEC (minimal effective concentration)” value is 0.03 µM.

Consider `Cc1nc2c(OCc3c(F)cccc3F)cccn2c1C(=O)NC(CO)CCC(O)C(F)(F)F` (single isomer, unassigned) [Example 138, 8-[(2,6-Difluorobenzyl)oxy]-2-methyl-N-(6,6,6-trifluoro-1,5-dihydroxyhexan-2-yl)imidazo[1,2-a]-pyridine-3-carboxamide], for which the “MEC (minimal effective concentration)” value was 0.1 µM.

For the molecule `Cc1nc2c(OCc3c(F)cccc3F)cccn2c1C(=O)NC(CO)CO` [Example 26], the “MEC (minimal effective concentration)” value came to 2.0 µM.

In the case of `CCc1nc2c(OCC3CCCCC3)cccn2c1C(=O)N[C@H](C)CO` [Example 55, 8-(Cyclohexylmethoxy)-2-ethyl-N-[(2R)-1-hydroxypropan-2-yl]imidazo[1,2-a]pyridine-3-carboxamide formic acid salt], the “MEC (minimal effective concentration)” value is 0.1 µM.

`Cc1nc2c(OCC3CCCCC3)cccn2c1C(=O)N[C@@H](C)CO` [Example 75, 8-(cyclohexylmethoxy)-N-[(2S)-1-hydroxypropan-2-yl]-2-methylimidazo[1,2-a]pyridine-3-carboxamide]: the “MEC (minimal effective concentration)” value worked out at 0.22 µM.

Consider `Cc1cc(OCc2ncccc2F)c2nc(C)c(C(=O)NC(CCCC(F)(F)C(F)(F)F)C(C)(C)O)n2c1` (single isomer, unassigned; ent-8) [Example 192, ent-8-[(3-fluoropyridin-2-yl)methoxy]-2,6-dimethyl-N-(7,7,8,8,8-pentafluoro-2-hydroxy-2-methyloctan-3-yl)imidazo[1,2-a]pyridine-3-carboxamide (enantiomer B)], for which the “MEC (minimal effective concentration)” value worked out at 2 µM.

In the case of `Cc1nc2c(OCC3CCCCC3)cccn2c1C(=O)NC1CCCC1O` (stereo not drawn) [Example 83, 8-(cyclohexylmethoxy)-N-(2-hydroxycyclopentyl)-2-methylimidazo[1,2-a]pyridine-3-carboxamide], the “MEC (minimal effective concentration)” value was 0.3 µM.

Consider `Cc1nc2c(OCC3CCCCC3)cccn2c1C(=O)NCCCO` [Example 82, 8-(cyclohexylmethoxy)-N-(3-hydroxypropyl)-2-methylimidazo[1,2-a]pyridine-3-carboxamide], for which the “MEC (minimal effective concentration)” value came to 0.3 µM.

As for `Cc1cc(OCc2ncccc2F)c2nc(C)c(C(=O)NC(CC(F)(F)F)C(C)(C)O)n2c1` (single isomer, unassigned; ent-8) [Example 185, ent-8-[(3-fluoropyridin-2-yl)methoxy]-2,6-dimethyl-N-(1,1,1-trifluoro-4-hydroxy-4-methylpentan-3-yl)imidazo[1,2-a]pyridine-3-carboxamide (enantiomer B)], the “MEC (minimal effective concentration)” value came out at 0.3 µM.

For the molecule `CCCCC(NC(=O)c1c(C)nc2c(OCCC(C)C)cc(C)cn12)C(C)(C)O` (single isomer, unassigned) [Example 167, ent-N-(2-Hydroxy-2-methylheptan-3-yl)-2,6-dimethyl-8-(3-methylbutoxy)imidazo[1,2-a]pyridine-3-carboxamide], the “MEC (minimal effective concentration)” value worked out at 2.0 µM.

For the molecule `Cc1nc2c(OCc3c(F)cccc3F)cccn2c1C(=O)NCC(O)COc1ccc(F)cc1` (stereo not drawn) [Example 136, 8-[(2,6-difluorobenzyl)oxy]-N-[3-(4-fluorophenoxy)-2-hydroxypropyl]-2-methylimidazo[1,2-a]pyridine-3-carboxamide], the “MEC (minimal effective concentration)” value was 3.0 µM.

Take `Cc1nc2c(OCc3c(F)cccc3F)cccn2c1C(=O)NC[C@@H](O)c1ccccc1` [Example 32]: the “MEC (minimal effective concentration)” value was 1.0 µM.

`Cc1nc2c(OCc3c(F)cccc3F)cccn2c1C(=O)N[C@H](C)CO` [Example 118, 8-[(2,6-difluorobenzyl)oxy]-N-[(2R)-1-hydroxypropan-2-yl]-2-methylimidazo[1,2-a]-pyridine-3-carboxamide]: the “MEC (minimal effective concentration)” value came to 0.3 µM.

For `Cc1nc2c(OCc3c(F)cccc3F)cccn2c1C(=O)NCCCO` [Example 22], the “MEC (minimal effective concentration)” value worked out at 1.0 µM.

As to `C=CCC(CO)NC(=O)c1c(C)nc2c(OCC3CCCCC3)cccn12` (racemic) [Example 70, (rac)-8-(cyclohexylmethoxy)-N-(1-hydroxypent-4-en-2-yl)-2-methylimidazo[1,2-a]pyridine-3-carboxamide], the “MEC (minimal effective concentration)” value came out at 0.1 µM.

With `Cc1nc2c(OCc3c(F)cccc3F)cccn2c1C(=O)NC(c1ccc(Cl)cc1)C(C)(C)O` (racemic) [Example 151, rac-N-[1-(4-chlorophenyl)-2-hydroxy-2-methylpropyl]-8-[(2,6-difluorobenzyl)oxy]-2-methylimidazo[1,2-a]pyridine-3-carboxamide], the “MEC (minimal effective concentration)” value is 0.3 µM.

On to `Cc1nc2c(OCc3c(F)cccc3F)cccn2c1C(=O)NCC(O)COc1ccccc1` (stereo not drawn) [Example 137, 8-[(2,6-difluorobenzyl)oxy]-N-(2-hydroxy-3-phenoxypropyl)-2-methylimidazo[1,2-a]-pyridine-3-carboxamide], for which the “MEC (minimal effective concentration)” value was 3.0 µM.

`CCCC[C@H](CO)NC(=O)c1c(C)nc2c(OCc3ccccc3Cl)cccn12` [Example 4]: the “MEC (minimal effective concentration)” value was 0.1 µM.

In the case of `CCCC[C@H](CO)NC(=O)c1c(C)nc2c(OCc3c(F)cccc3F)cc(Cl)cn12` [Example 131, 6-chloro-8-[(2,6-difluorobenzyl)oxy]-N-[(2R)-1-hydroxyhexan-2-yl]-2-methylimidazo[1,2-a]pyridine-3-carboxamide], the “MEC (minimal effective concentration)” value was determined as 0.01 µM.

Turning to `CCCC[C@H](CO)NC(=O)c1c(C)nc2c(OCc3cccc4c3OC(F)(F)O4)cccn12` [Example 12], the “MEC (minimal effective concentration)” value was found to be 3.0 µM.

In the case of `CCC[C@@H](CO)NC(=O)c1c(C)nc2c(OCC3CCCCC3)cccn12` [Example 89, 8-(cyclohexylmethoxy)-N-[(2S)-1-hydroxypentan-2-yl]-2-methylimidazo[1,2-a]pyridine-3-carboxamide], the “MEC (minimal effective concentration)” value came to 1.0 µM.

Take `Cc1cc(OCc2ncccc2F)c2nc(C)c(C(=O)NC(CCC(F)(F)C(F)(F)F)C(C)(C)O)n2c1` (racemic) [Example 186, rac-8-[(3-fluoropyridin-2-yl)methoxy]-2,6-dimethyl-N-(6,6,7,7,7-pentafluoro-2-hydroxy-2-methylheptan-3-yl)imidazo[1,2-a]pyridine-3-carboxamide (racemate)]: the “MEC (minimal effective concentration)” value turned out to be 1 µM.

Take `CCCC[C@H](CO)NC(=O)c1c(C)nc2c(OCCC(C(F)(F)F)C(F)(F)F)cc(C)cn12` [Example 169, N-[(2R)-1-Hydroxyhexan-2-yl]-2,6-dimethyl-8-[4,4,4-trifluoro-3-(trifluoromethyl)butoxy]imidazo-[1,2-a]pyridine-3-carboxamide]: the “MEC (minimal effective concentration)” value came to 0.3 µM.

For the molecule `Cc1cc(OCc2ncccc2F)c2nc(C)c(C(=O)NC(CCCC(F)(F)C(F)(F)F)C(C)(C)O)n2c1` (racemic) [Example 190, rac-8-[(3-fluoropyridin-2-yl)methoxy]-2,6-dimethyl-N-(7,7,8,8,8-pentafluor-2-hydroxy-2-methyloctan-3-yl)imidazo[1,2-a]pyridine-3-carboxamide (racemate)], the “MEC (minimal effective concentration)” value was determined as 1 µM.

Take `Cc1nc2c(OCc3c(F)cccc3F)cccn2c1C(=O)NC(CO)c1ccc(F)cc1` (single isomer, unassigned; ent-8) [Example 107, ent-8-[(2,6-Difluorobenzyl)oxy]-N-[1-(4-fluorophenyl)-2-hydroxyethyl]-2-methylimidazo[1,2-a]-pyridine-3-carboxamide]: the “MEC (minimal effective concentration)” value came to 0.1 µM.

On to `CCCC[C@@H](NC(=O)c1c(C)nc2c(OCc3c(F)cccc3F)cccn12)C(C)O` (stereo partly drawn) [Example 140, 8-[(2,6-Difluorobenzyl)oxy]-N-[(3R)-2-hydroxyheptan-3-yl]-2-methylimidazo[1,2-a]pyridine-3-carboxamide], for which the “MEC (minimal effective concentration)” value stood at 0.03 µM.

As to `Cc1nc2c(OCc3c(F)cccc3F)cccn2c1C(=O)NCCCCO` [Example 23], the “MEC (minimal effective concentration)” value came to 0.3 µM.
